Measurements taken from patent publication US20130123201A1, “MODULATION OF CYTOKINE-INDUCED CHRONIC INFLAMMATORY RESPONSES” (UNIVERSITY OF MANITOBA, priority 2010, published 2013).

Assays:
Format in all cases: cell-based
[1] = system: Human macrophage-like THP-1 cells; experiment: qRT-PCR of cytokine-induced gene expression in THP-1 cells
Experimental: (§1) Quantitative real-time PCR (qRT-PCR): Human FLS or monocytic THP-1 cells were stimulated with indicated stimulants for 4 hr. RNA was isolated and analyzed for gene expression by qRT-PCR using SuperScript III Platinum Two-Step qRT-PCR Kit with SYBR Green (Invitrogen), according to the manufacturer's instructions, in the ABI PRISM 7000 sequence detection system (Applied Biosystems). Fold changes were calculated using the comparative Ct method, after normalization using 18S rRNA primers.
as §1, with “macrophage-like” for “monocytic”

[2] = system: Human fibroblast-like synovial (FLS) cells; experiment: qRT-PCR of cytokine-induced gene expression in FLS cells; details: some of the responses
Experimental: Cell culture and isolation: Human fibroblast-like synovial (FLS) cells were isolated from synovial tissues obtained from patients […]. Briefly, the tissues were digested with 1 mg/ml collagenase and 0.05 mg/ml hyaluronidase (both obtained from Sigma; Oakville, ON, Canada) in Hanks' balanced salt solution (Gibco) for 1-2 hours at 37° C. The cells were cultured in DMEM media (Gibco) supplemented with sodium pyruvate and non-essential amino acids (referred to as complete DMEM media henceforth), containing […] in a humidified incubator at 37° C. and 10% CO2. […] Cellular cytotoxicity was evaluated after 24 hr stimulation with the various stimulants used in this study by monitoring the release of lactate dehydrogenase (LDH) employing a colorimetric detection kit (Roche Diagnostics, Laval, QC, Canada).
as §1, with “primers. […]” for “primers.”

[3] = system: Human macrophage-like THP-1 cells; experiment: ELISA of cytokine/chemokine production in THP-1 tissue culture supernatants
Experimental: ELISA immunoassay: Tissue culture supernatants were centrifuged at 1500× g for 5-7 min to obtain cell-free samples and the aliquots were stored at −20° C. until further use. Production of chemokine Gro-α was monitored in the tissue culture supernatants by ELISA employing human Gro-α DuoSet (R&D Systems Inc.) as per the manufacturer's instructions. Production of cytokine TNF-α was monitored in the tissue culture supernatants using specific antibody pairs from eBioscience, Inc., and production of IL-8 was monitored using specific antibody pairs from R&D Systems, Inc., as per the manufacturer's instructions. The concentration of the cytokines or chemokines in the tissue culture supernatants was evaluated by establishing a standard curve with serial dilutions of the recombinant human cytokines or chemokines as required.
ELISA immunoassay: Tissue culture supernatants were centrifuged at 1500× g for 5-7 min to obtain cell-free samples and the aliquots were stored at −20° C. until further use. Production of chemokine Gro-α was monitored in the tissue culture supernatants by ELISA employing human Gro-α DuoSet (R&D Systems Inc.) per the manufacturer's instructions. Production of cytokine TNF-α was monitored in the tissue culture supernatants using specific antibody pairs from eBioscience, Inc., and production of IL-8 was monitored using specific antibody pairs from R&D Systems, Inc., per the manufacturers' instructions. The concentrations of the cytokines or chemokines in the tissue culture supernatants were evaluated by establishing a standard curve with serial dilutions of the recombinant human cytokines or chemokines as required.
Impact of cationic peptide LL-37 and its synthetic derivatives on IL-32-induced protein production: Human macrophage-like THP-1 cells were stimulated with IL-32 (20 ng/mL) in the presence and absence of cationic peptide LL-37, tissues culture supernatants were monitored for the production of pro-inflammatory cytokines TNF-α and IL-1β, and chemokines after 24 hr of stimulation. […] As LL-37 suppressed IL-32-mediated pro-inflammatory responses, we also evaluated the impact of LL-37 derived synthetic peptides. […] No studies to data have explored the impact of these peptides in the context of chronic inflammation. […] This provides the data that supports further investigation of these peptide candidates as potential therapeutics for diseases characterized by chronic inflammation.

[4] = system: human PBMC; experiment: ELISA of IL-32-induced TNF-α and IL-1β production in PBMC (ex-vivo)
Source text: In order to confirm these activities in a physiologically relevant system, we evaluated the impact of the peptide in an ex-vivo assay using human PBMC, because cells recruited from the circulation are a major component of inflammatory infiltrates. Venous blood was collected from healthy volunteers with informed consent in accordance to a protocol approved by the Institutional Review Board at the University of Manitoba. PBMC was isolated from blood following the teaching of Mookherjee et al. (2009, Systems biology evaluation of immune responses induced by human host defence peptide LL-37 in mononuclear cells. Mol. Biosyst. 5:483-496). PBMC were stimulated with chronic inflammatory cytokine IL-32 (20 ng/ml) in the presence and absence of 5 μM of peptides, LL-37 and its derivatives (Table 7) for 24 hr. The tissue culture supernatants were monitored for the production of pro-inflammatory cytokines TNF-α and IL-1β by ELISA. […] Results shown are an average of four independent biological experiments performed with cells isolated from blood of four different donors ±standard error.

[5] = system: Human macrophage-like THP-1 cells; experiment: ELISA of cytokine/chemokine production in THP-1 tissue culture supernatants; details: both monocytic THP-1 and human FLS cells, data not shown
[6] = THP-1 cells, in the presence of the peptide
[7] = THP-1 cells, in the presence of the peptide, p<0.01
[8] = macrophage-like THP-1 cells, IL-32 20 ng/mL, 24 hr

“LL-37: Human cathelicidin cationic host defence peptide, SEQ ID NO: 21, LLGDFFRKSKEKIGKEFKRIVQRIKDFLRNLVPRTES” was tested, and the “Suppression of IL-32-induced IL-8 (CXCL8) expression” value [1, 6] was 30-40%, the “Suppression of IL-32-induced IL-23 expression” value [1, 6] was 30-40% and the “Suppression of IL-32-induced NF-κB1A expression” value [1, 6] was 30-40%. The “Suppression of IL-32-induced Gro-α (CXCL1) gene expression” value [1, 7] was greater than 50%, the “Suppression of IL-32-induced IL-6 gene expression” value [1, 7] was greater than 50% and the “Suppression of IL-32-induced TNF-α gene expression” value [1, 7] was greater than 50%. The “Effect on IL-17-induced expression of pro-inflammatory genes or chemokine genes” value ([1]; human monocytic cells / macrophages, data not shown) was “not altered”, the “Effect on IL-17-induced transcriptional responses” value [2] was “significantly enhanced” and the “Suppression of IL-32-induced TNF-α production” value ([3]; THP-1 monocytic cells, ELISA after 24 or 48 hr) was greater than 30%. The “Suppression of IL-32-induced chemokine Gro-α production” value ([3]; THP-1 monocytic cells, ELISA after 24 or 48 hr, p<0.05) was 12±4%, the “Effect on IL-32-induced IL-1β production” value [3, 8] was “significantly suppressed” and the “Effect on IL-32-induced TNF-α production” value [3, 8] was “significantly suppressed”. The “Effect on IL-32-induced chemokine production (IL-8, GROα)” value [3, 8] was “not altered”, the “Effect on IL-32-induced IL-1β production” value ([4]; human PBMC, IL-32 20 ng/ml, 5 μM peptide, 24 hr) was “neutralized” and the “Effect on IL-32-induced TNF-α production” value ([4]; human PBMC, IL-32 20 ng/ml, 5 μM peptide, 24 hr, p<0.05) was “neutralized”. For the same substance, the “Effect on IL-32 induced pro-inflammatory protein production (FIG. 21 legend)” value ([4]; peripheral blood mononuclear cells) was “suppression” and the “Effect on IL-17-induced chemokine production” value [5] was “not significantly altered (or modestly enhanced)”.
